Experimental data as given in patent publication US11912668B2, “GCN2 and perk kinase inhibitors and methods of use thereof” (Deciphera Pharmaceuticals, LLC, priority 2020, dated 2024).

How the values were obtained:
[1] = system: ATF4 in CCRF-CEM leukemia cells (PERK); experiment: CCRF-CEM TG ATF4 ELISA, phenotypic assay for cellular inhibition of PERK preactivated by thapsigargin; type: cell-based; conditions: Homo sapiens; Thapsigargin (1 μM) stimulated CCRF-CEM cells
Description: CCRF-CEM leukemia cells (catalog #CCL-116) were obtained from the American Type Culture Collection (ATTC, Manassas, VA). Briefly, cells were grown in RPMI-1640 medium supplemented with 10% heat-inactivated fetal bovine serum (Invitrogen, Carlsbad, CA) and 1% Penicillin/Streptomycin/L-Glutamine at 37° C., 5% CO2, and 95% humidity. Cells were expanded until reaching one million cells per mL at which time they were subcultured or harvested for assay use. One million five hundred thousand cells per well in 1 mL complete growth medium were dispensed into 12-well plates and incubated overnight. A serial dilution of test compound was added and cells were incubated at 37° C., 5% CO2, and 95% for three hours, then 1 μM thapsigargin was added and cells were incubated for an additional hour at 37° C., 5% CO2, and 95%. Cells were lysed then ATF4 levels were measured using an ELISA assay (Proteintech, Rosemont, IL). Absorbance was measured at 450 nm and 544 nM using a Synergy2 or equivalent reader (Biotek, Winooski VT). Data was analyzed using PRISM software (Graphpad, San Diego, CA) to calculate IC50 values.

[2] = system: ATF4 in HCT116 colorectal cancer cells; experiment: HCT116 amino acid starved (-AA) ATF4 assay (Western blot); type: cell-based; conditions: Homo sapiens, HCT-116, 4 h
Description: (§1) HCT116 colorectal cancer cells (catalog #CCL-247) were obtained from the American Type Culture Collect (ATTC, Manassas, VA). Briefly, cells were grown in RPMI 1640 supplemented with 10% heat inactivated fetal bovine serum (Invitrogen, Carlsbad, CA) and 1% Penicillin/Streptomycin/L-Glutamine at 37° C., 5% CO2, and 95% humidity. Cells were expanded until reaching 70-95% confluency at which point they were subcultured or harvested for assay use. Cells were seeded in 12-well culture plate at five hundred thousand cells per well in 1 mL complete growth medium and incubated overnight at 37° C., 5% CO2, and 95% humidity. The next day each well was replaced with 1 mL Earle's Balanced Salt Solution (EBSS, Invitrogen, Carlsbad, CA) supplemented with 10% Dialyzed Fetal Bovine Serum, 5.5 mM Glucose, 1% Penicillin/Streptomycin and 1% Vitamin solution (thermo #11120052). A serial dilution of test compound was dispensed into well. Plates were incubated for 4 h at 37° C., 5% CO2, and 95% humidity. At the end of the incubation, cells were washed with PBS supplemented with 1× Halt protease inhibitor, 1× Halt phosphatase inhibitor, 1× Sigma phosphatase inhibitor cocktail 2 and 1×EDTA and then lysed with M-PER Mammalian Protein Extraction Reagent supplemented with 3× of the inhibitor mix as described above. Cell lysates were sonicated with water bath sonicator (Qsonica, Newtown, CT) and supernatants were boiled with SDS buffer and reducing agent. Western blot was performed on each lysate to quantify phospho-GCN2 (Thr899), total GCN2, ATF4 and beta-Actin. Membranes were imaged with LI-COR Odyssey CLx Imaging System (LI-COR, Lincoln, NE). Data were analyzed using GraphPad Prism software (GraphPad, San Diego, CA) to calculate IC50 values.

[3] = system: CCRF-CEM leukemia cells; experiment: CCRF-CEM ASNase cell proliferation assay, phenotypic assay for cellular inhibition of GCN2; type: cell-based; conditions: Homo sapiens; ASNase treated CCRF-CEM cells, 1 mU/mL ASNase, 72 h
Description: CCRF-CEM leukemia cells (catalog #CCL-116) were obtained from the American Type Culture Collect (ATTC, Manassas, VA). Cells were grown in RPMI-1640 medium supplemented with 10% heat-inactivated fetal bovine serum (Invitrogen, Carlsbad, CA) and 1% Penicillin/Streptomycin/L-Glutamine at 37° C., 5% CO2, and 95% humidity. Cells were expanded until reaching one million cells per mL at which time they are subcultured or harvested for assay use. Ten thousand cells per well in 200 μL RPMI-1640 supplemented with 10% heat-inactivated fetal bovine serum and 1% Penicillin/Streptomycin were dispensed into a 96-well black clear bottom plate. A serial dilution of test compound and 1 mU/mL ASNase was added in triplicate and plates were incubated for 72 h at 37° C., 5% CO2, and 95% humidity. At the end of the incubation, 40 μL of a […] solution of resazurin (Sigma, St. Louis, MO) in PBS was added to each well of the plate and plates were incubated for an additional 6 h at 37° C., 5% CO2, and 95% humidity. Plates were read on a Synergy2 or equivalent reader (Biotek, Winooski VT) using an excitation of 540 nm and an emission of 600 nm. Data was analyzed using GraphPad Prism software (GraphPad, San Diego, CA) to calculate IC50 values.

[4] = molecular target: PERK kinase (Homo sapiens (Human), UniProt Q9NZJ5); experiment: Biochemical assay for PERK (coupled pyruvate kinase/lactate dehydrogenase assay); conditions: 1 mM ATP, rate from 2-3 h time frame
Summary of the method: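 Coupled pyruvate kinase/lactate dehydrogenase readout of ATP hydrolysis via NADH oxidation (A340), 10 nM PERK, 0.25 mg/mL myelin basic protein, 1 mM ATP, pH 7.5 Tris/MgCl2 buffer, 1% DMSO. Absorbance followed 6 h at 30° C; rate from the 2-3 h window, normalised to no-compound and known-inhibitor controls, IC50 fitted.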

[5] = molecular target: GCN2 kinase (Homo sapiens (Human), UniProt Q9P2K8); experiment: Biochemical assay for GCN2 (TR-FRET kinase activity assay); conditions: 1 mM ATP, 3-hour incubation
Summary of the method: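 TR-FRET assay with 2 nM GCN2, 130 nM GFP-eIF2α substrate, 0.2 mg/mL E. coli tRNA and 1 mM ATP; compounds (0.5% DMSO) reacted 3 h. Stopped with 20 mM EDTA plus 2 nM Tb-anti-peIF2α (pSer52), 60 min RT; 520/490 ratio converted to % inhibition, IC50 from four-parameter fit.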

[6] = system: phospho-GCN2 (Thr899) in HCT116 colorectal cancer cells; experiment: HCT116 amino acid starved (-AA) phospho-GCN2 assay (Western blot); type: cell-based; conditions: Homo sapiens, HCT-116, 4 h, read-out: HCT116-AA pGCN2 Western Blot
Description: as §1

Chain of GCN2 kinase (Q9P2K8 whole entry): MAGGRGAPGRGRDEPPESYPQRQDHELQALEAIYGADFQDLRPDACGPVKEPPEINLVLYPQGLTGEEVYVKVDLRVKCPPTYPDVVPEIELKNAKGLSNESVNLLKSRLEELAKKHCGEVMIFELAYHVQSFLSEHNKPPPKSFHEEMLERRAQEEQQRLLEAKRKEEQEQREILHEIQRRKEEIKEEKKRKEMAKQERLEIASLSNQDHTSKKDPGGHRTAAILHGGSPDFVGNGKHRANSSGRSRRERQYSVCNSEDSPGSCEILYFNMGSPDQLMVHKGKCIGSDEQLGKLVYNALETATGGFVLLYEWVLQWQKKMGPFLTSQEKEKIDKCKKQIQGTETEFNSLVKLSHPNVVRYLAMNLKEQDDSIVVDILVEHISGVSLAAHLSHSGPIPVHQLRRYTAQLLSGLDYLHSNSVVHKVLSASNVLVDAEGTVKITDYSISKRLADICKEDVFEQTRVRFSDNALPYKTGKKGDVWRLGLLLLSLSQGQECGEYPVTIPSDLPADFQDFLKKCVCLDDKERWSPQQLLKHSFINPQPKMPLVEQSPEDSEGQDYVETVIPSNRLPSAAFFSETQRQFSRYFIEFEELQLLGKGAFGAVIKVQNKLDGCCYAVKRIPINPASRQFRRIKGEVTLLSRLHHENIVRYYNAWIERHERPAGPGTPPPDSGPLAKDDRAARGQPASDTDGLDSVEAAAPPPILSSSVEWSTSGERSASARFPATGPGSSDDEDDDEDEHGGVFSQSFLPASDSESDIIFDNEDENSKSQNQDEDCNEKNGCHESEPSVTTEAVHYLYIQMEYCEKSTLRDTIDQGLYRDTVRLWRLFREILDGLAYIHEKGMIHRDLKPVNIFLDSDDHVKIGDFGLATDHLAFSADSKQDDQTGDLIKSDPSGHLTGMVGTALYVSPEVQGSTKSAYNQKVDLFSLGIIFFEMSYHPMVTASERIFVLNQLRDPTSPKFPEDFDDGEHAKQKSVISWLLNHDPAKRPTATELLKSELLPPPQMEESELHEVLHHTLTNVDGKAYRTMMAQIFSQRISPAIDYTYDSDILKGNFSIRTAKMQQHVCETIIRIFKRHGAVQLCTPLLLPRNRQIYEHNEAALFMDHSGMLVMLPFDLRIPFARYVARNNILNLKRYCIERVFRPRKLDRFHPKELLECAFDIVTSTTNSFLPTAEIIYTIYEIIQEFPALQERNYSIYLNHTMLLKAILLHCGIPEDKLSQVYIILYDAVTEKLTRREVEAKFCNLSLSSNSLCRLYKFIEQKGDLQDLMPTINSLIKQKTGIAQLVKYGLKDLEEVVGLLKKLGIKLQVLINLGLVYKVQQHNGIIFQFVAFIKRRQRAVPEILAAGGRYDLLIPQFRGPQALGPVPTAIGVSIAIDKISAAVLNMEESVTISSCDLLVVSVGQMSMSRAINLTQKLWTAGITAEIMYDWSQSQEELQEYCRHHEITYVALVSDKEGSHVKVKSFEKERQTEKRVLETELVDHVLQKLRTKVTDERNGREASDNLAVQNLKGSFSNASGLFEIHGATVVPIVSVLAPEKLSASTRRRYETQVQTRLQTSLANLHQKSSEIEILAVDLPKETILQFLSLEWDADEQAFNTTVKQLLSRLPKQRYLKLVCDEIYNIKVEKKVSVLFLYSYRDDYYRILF
Chain of PERK kinase (Q9NZJ5 other isoform, or with tags, fused parts or gaps): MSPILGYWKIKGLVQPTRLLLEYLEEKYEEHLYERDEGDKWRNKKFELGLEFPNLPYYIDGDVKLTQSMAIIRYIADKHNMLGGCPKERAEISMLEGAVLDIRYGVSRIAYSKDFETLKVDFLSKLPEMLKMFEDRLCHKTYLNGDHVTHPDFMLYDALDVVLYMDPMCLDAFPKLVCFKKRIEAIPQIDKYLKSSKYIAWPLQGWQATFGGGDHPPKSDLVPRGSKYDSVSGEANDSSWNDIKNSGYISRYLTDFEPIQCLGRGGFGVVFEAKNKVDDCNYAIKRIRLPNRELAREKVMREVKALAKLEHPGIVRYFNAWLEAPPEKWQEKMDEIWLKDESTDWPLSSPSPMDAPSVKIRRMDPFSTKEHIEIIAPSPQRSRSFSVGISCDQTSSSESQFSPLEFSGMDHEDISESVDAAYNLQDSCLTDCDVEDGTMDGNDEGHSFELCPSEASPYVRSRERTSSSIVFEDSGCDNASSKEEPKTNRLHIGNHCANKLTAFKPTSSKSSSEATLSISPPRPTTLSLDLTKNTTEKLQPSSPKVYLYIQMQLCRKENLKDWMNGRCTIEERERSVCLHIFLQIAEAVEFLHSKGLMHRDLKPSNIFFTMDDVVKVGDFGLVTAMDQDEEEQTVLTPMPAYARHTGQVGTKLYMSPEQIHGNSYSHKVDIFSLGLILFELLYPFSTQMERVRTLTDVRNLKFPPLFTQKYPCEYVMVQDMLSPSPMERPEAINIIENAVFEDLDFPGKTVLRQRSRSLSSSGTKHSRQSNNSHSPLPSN

| Compound | IC50 [1] [nM] | IC50 [2] [nM] | IC50 [3] [nM] | IC50 [4] [nM] | IC50 [5] [nM] | IC50 [6] [nM] |
| --- | --- | --- | --- | --- | --- | --- |
| CNc1ncc2cc(-c3cccc(NS(=O)(=O)c4cc(Cl)cnc4NC4CC4)c3F)c(NC)nc2n1 [Example 137] | 1000 to 10000 | ≤ 100 | ≤ 100 | 100 to 500 | ≤ 100 | ≤ 100 |
| CNc1cc2ncc(-c3cccc(NS(=O)(=O)c4cc(Cl)cnc4OC)c3F)cc2cn1 [Example 56] | 500 to 1000 | ≤ 100 | ≤ 100 | ≤ 100 | 100 to 500 | ≤ 100 |
| COc1ncc(Cl)cc1S(=O)(=O)Nc1cccc(-c2cc3cnc(NC(C)=O)cc3nc2C)c1F [Example 84] | 100 to 500 | ≤ 100 | ≤ 100 | ≤ 100 | ≤ 100 | ≤ 100 |
| CNc1cc2nc(C)c(-c3cc(NS(=O)(=O)c4cc(Cl)cc(CO)c4Cl)c(F)cc3F)cc2cn1 [Example 22] | 1000 to 10000 | ≤ 100 | ≤ 100 | ≤ 100 | ≤ 100 | ≤ 100 |
| CNc1ncc2cc(-c3cccc(NS(=O)(=O)c4cc(Cl)cc(C(C)(C)O)c4Cl)c3F)c(NC)nc2n1 [Example 74] | 1000 to 10000 | ≤ 100 | ≤ 100 | 100 to 500 | 100 to 500 | ≤ 100 |
| CNc1ncc2cc(-c3cccc(NS(=O)(=O)c4cc(Cl)cc(C(=O)OC)c4Cl)c3F)c(NC)nc2n1 [Example 102] | 1000 to 10000 | ≤ 100 | ≤ 100 | 100 to 500 | ≤ 100 | ≤ 100 |
| CNc1cc2nc(OC)c(-c3cccc(NS(=O)(=O)c4cc(Cl)cnc4OC)c3F)cc2cn1 [Example 129] | 1000 to 10000 | ≤ 100 | ≤ 100 | ≤ 100 | ≤ 100 | ≤ 100 |
| CNc1ncc2cc(-c3cc(NS(=O)(=O)c4cc(Cl)cnc4OC)cc(F)c3C)c(C)nc2n1 [Example 26] | 1000 to 10000 | ≤ 100 | ≤ 100 | ≤ 100 | ≤ 100 | ≤ 100 |
| CNc1ncc2cc(-c3cc(F)cc(NS(=O)(=O)c4cc(Cl)cnc4OC)c3)c(N)nc2n1 [Example 63] | 1000 to 10000 | ≤ 100 | ≤ 100 | ≤ 100 | ≤ 100 | ≤ 100 |
| CNc1ncc2cc(-c3cccc(NS(=O)(=O)c4cc(Cl)cnc4OC)c3F)c(NCCO)nc2n1 [Example 97] | 1000 to 10000 | 100 to 500 | ≤ 100 | 100 to 500 | ≤ 100 | ≤ 100 |
| CNc1nc2nc(NC(C)C)ncc2cc1-c1cccc(NS(=O)(=O)c2cc(Cl)cnc2OC)c1F [Example 117] | 1000 to 10000 | 100 to 500 | 100 to 500 | 100 to 500 | ≤ 100 | 100 to 500 |
| CNc1ncc2cc(-c3cc(F)cc(NS(=O)(=O)c4cc(Cl)cnc4OC)c3)c(NC)nc2n1 [Example 11] | 1000 to 10000 | ≤ 100 | 100 to 500 | 100 to 500 | ≤ 100 | ≤ 100 |
| CNc1ncc2cc(-c3cccc(NS(=O)(=O)c4cc(Cl)cnc4OC)c3F)ccc2n1 [Example 36] | 1000 to 10000 | ≤ 100 | ≤ 100 | ≤ 100 | ≤ 100 | ≤ 100 |
| CNc1ncc2cc(-c3cccc(NS(=O)(=O)c4cc(Cl)ccc4OC)c3F)c(NC)nc2n1 [Example 148] | 1000 to 10000 | ≤ 100 | ≤ 100 | ≤ 100 | ≤ 100 | ≤ 100 |
| CNc1cc2nc(C)c(-c3cccc(NS(=O)(=O)c4cc(Cl)cc(CO)c4Cl)c3F)cc2cn1 [Example 45] | 100 to 500 | ≤ 100 | ≤ 100 | ≤ 100 | ≤ 100 | ≤ 100 |
| CNc1ncc2cc(-c3cccc(NS(=O)(=O)c4cc(Cl)cnc4OC)c3Cl)c(C)nc2n1 [Example 67] | 1000 to 10000 | ≤ 100 | ≤ 100 | ≤ 100 | ≤ 100 | ≤ 100 |
| COc1ncc(Cl)cc1S(=O)(=O)Nc1cccc(-c2cc3cnc(N)cc3nc2C)c1F [Example 77] | 100 to 500 | ≤ 100 | ≤ 100 | ≤ 100 | ≤ 100 | ≤ 100 |
| CNc1ncc2cc(-c3ccnc(NS(=O)(=O)c4cc(Cl)cnc4OC)c3F)c(OC)nc2n1 [Example 136] | 1000 to 10000 | 100 to 500 | 100 to 500 | 100 to 500 | ≤ 100 | ≤ 100 |
| CNc1ncc2cc(-c3cccc(NS(=O)(=O)c4cc(Cl)cnc4OC)c3F)c(NCCOC)nc2n1 [Example 100] | 1000 to 10000 | ≤ 100 | ≤ 100 | 100 to 500 | ≤ 100 | ≤ 100 |
| COc1ncc(Cl)cc1S(=O)(=O)Nc1cccc(-c2ccc3nc(NC(C)=O)ncc3c2)c1F [Example 35] | 1000 to 10000 | ≤ 100 | ≤ 100 | 100 to 500 | ≤ 100 | ≤ 100 |
| CNc1nc2nc(NC(C)=O)ncc2cc1-c1cccc(NS(=O)(=O)c2cc(Cl)cnc2OC)c1F [Example 158] | 1000 to 10000 | ≤ 100 | ≤ 100 | 100 to 500 | ≤ 100 | ≤ 100 |
| COc1ncc(Cl)cc1S(=O)(=O)Nc1cccc(-c2ccc3nc(N)ncc3c2)c1F [Example 33] | 1000 to 10000 | ≤ 100 | 100 to 500 | ≤ 100 | ≤ 100 | ≤ 100 |
| CNc1ncc2cc(-c3cc(NS(=O)(=O)c4cc(Cl)cnc4OC)cc(F)c3F)c(C)nc2n1 [Example 48] | 1000 to 10000 | ≤ 100 | 100 to 500 | 100 to 500 | ≤ 100 | ≤ 100 |
| CNc1cc2nc(C)c(-c3cc(NS(=O)(=O)c4cc(Cl)cnc4OC)ccc3F)cc2cn1 [Example 44] | 1000 to 10000 | ≤ 100 | ≤ 100 | ≤ 100 | ≤ 100 | ≤ 100 |
